The source of these data is publication PMC5913971, “A Novel Piperazine-Based Drug Lead for Cryptosporidiosis from the Medicines for Malaria Venture Open-Access Malaria Box” (Antimicrobial Agents and Chemotherapy, 2018).

The structures appear in SMILES notation. Where two headings read alike, the source gives them in different places.

The test concerns C. parvum Iowa isolate. Nature of the test: Immunofluorescence assay for C. parvum growth inhibition in HCT-8 cells. It counts as cell-based, Cryptosporidium parvum. As to the method:
Inhibition of C. parvum growth was measured as described previously ([20]). Oocysts were excysted by treatment with 10 mM hydrochloric acid (10 min at 37°C), followed by exposure to 2 mM sodium taurocholate (Sigma-Aldrich) in PBS for 10 min at 16°C. Excysted oocysts were then added to >95% confluent HCT-8 cell monolayers in 384-well plates at a concentration of 5,500 Iowa isolate oocysts per well. For C. parvum field isolates, the inoculum required to yield an infection level similar to that produced by 5,500 Iowa isolate oocysts per well was determined and was used for subsequent assays of parasite inhibition. Compounds were added just before or 3 h after infection, and assay plates were incubated for 48 h postinfection at 37°C under 5% CO2. Wells were then washed three times with PBS containing 111 mM D-galactose, fixed with 4% paraformaldehyde in PBS for 15 min at room temperature, permeabilized with 0.25% Triton X-100 for 10 min at 37°C, washed three times with PBS with 0.1% Tween 20, and blocked with 4% bovine serum albumin (BSA) in PBS for 2 h at 37°C or 4°C overnight. Parasitophorous vacuoles were stained with 1.33 μg/ml of fluorescein-labeled Vicia villosa lectin (Vector Laboratories) diluted in 1% BSA in PBS with 0.1% Tween 20 for 1 h at 37°C, followed by the addition of Hoechst 33258 (AnaSpec) at a final concentration of 0.09 mM diluted in water for another 15 min at 37°C. Wells were then washed five times with PBS containing 0.1% Tween 20. A Nikon Eclipse TE2000 epifluorescence microscope with an automated stage was programmed using NIS-Elements Advanced Research software (Nikon, USA) to focus on the center of each well and take a 3-by-3 composite image using an EXi Blue fluorescence microscopy camera (QImaging, Canada) with a 20× objective (numerical aperture, 0.45). Nucleus and parasite images were exported separately as .tif files and were analyzed using macros developed on the ImageJ platform (National Institutes of Health) ([20]). The only modification from the published macro used to count parasites was that the lower size threshold for parasites was decreased from 16.5 to 4 pixels (1 pixel = 0.65 μm). Graphs were plotted, and half-maximal effective concentration (EC50) and 90% effective concentration (EC90) values were calculated using GraphPad Prism software, version 6.01. For every C. parvum field isolate experiment, a dose-response experiment against the C. parvum Iowa isolate was performed simultaneously as a reference.

[1] abbreviates: Cryptosporidium parvum, HCT-8, Table S1, confirmed screening hits, read-out: C. parvum EC50 (95% CI).
[2] abbreviates: Cryptosporidium parvum, HCT-8, Table S3, SAR of MMV665917, read-out: C. parvum EC50 (95% CI).

`Cc1ccnc(NC(c2cccc(OCc3ccccc3)c2)c2ccc3cccnc3c2O)c1` (stereo not shown) [MMV000720, Cc1ccnc(NC(c2cccc(OCc3ccccc3)c2)c4ccc5cccnc5c4O)c1]: under setting [1], the EC50 came to 0.21 µM.
As to `O=C(c1cc(Cl)ccc1Cl)N1CCN(c2ccc3nncn3n2)CC1` [Compound D-47, Clc1ccc(c(c1)C(=O)N1CCN(CC1)c1ccc2n(n1)cnn2)Cl], under setting [2], the EC50 is greater than 25 µM.
Regarding `O=C(COc1ccc(F)cc1)N1CCN(c2ccc3nncn3n2)CC1` [Compound D-26, Fc1ccc(cc1)OCC(=O)N1CCN(CC1)c1ccc2n(n1)cnn2], the EC50 under setting [2] was 20 µM.
As for `COc1ccc(N2CCN(c3ccc4nncn4n3)CC2)cc1` [Compound D-31, COc1ccc(cc1)N1CCN(CC1)c1ccc2n(n1)cnn2], the EC50 under setting [2] is greater than 25 µM.
`Cc1cccc(-n2ncc3c(=O)[nH]c(-n4nc(C)cc4NC(=O)c4cc5ccccc5o4)nc32)c1` [MMV403679, c1(c(cnn1c2cccc(C)c2)C(=O)N3)N=C3n4nc(C)cc4NC(=O)c5cc(cccc6)c6o5]: the EC50 (Table S1, confirmed screening hits, read-out: C. parvum EC50 (95% CI)) was 0.12 µM.
Regarding `O=C(NC1CCCCC1)N1CCN(c2ccc3nnc(C4CC4)n3n2)CC1` [Compound D-22, O=C(N1CCN(CC1)c1ccc2n(n1)c(nn2)C1CC1)NC1CCCCC1], under setting [2], the EC50 was greater than 25 µM.
On to `CC(C)c1ccc(NC(=O)N2CCN(c3ccc4nncn4n3)CC2)cc1` [Compound D-36, O=C(N1CCN(CC1)c1ccc2n(n1)cnn2)Nc1ccc(cc1)C(C)C], for which, under setting [2], the EC50 was greater than 25 µM.
Take `O=C(COc1ccc(Cl)cc1Cl)N1CCN(c2ccc3nncn3n2)CC1` [Compound D-50, Clc1ccc(c(c1)Cl)OCC(=O)N1CCN(CC1)c1ccc2n(n1)cnn2]: the EC50 under setting [2] stood at 16 µM.
With `O=C(Nc1ccc(OC(F)(F)F)cc1)N1CCN(c2ccc3nncn3n2)CC1` [Compound D-76, FC(F)(F)Oc1ccc(cc1)NC(=O)N2CCN(CC2)c3ccc4nncn4n3], the EC50 under setting [2] was greater than 25 µM.
With `O=C(Cc1noc2ccccc12)N1CCN(c2ccc3nncn3n2)CC1` [Compound D-49, O=C(N1CCN(CC1)c1ccc2n(n1)cnn2)Cc1noc2c1cccc2], under setting [2], the EC50 was greater than 25 µM.
`O=C1c2ccc3c4c(ccc(c24)C(=O)N1CCCCO)C(=O)N(CCCCO)C3=O` [MMV009085, OCCCCN1C(=O)c2ccc3C(=O)N(CCCCO)C(=O)c4ccc(C1=O)c2c34]: the EC50 under setting [1] amounted to 2.6 µM.
As to `O=S(=O)(c1ccc(Cl)cc1)N1CCN(c2ccc3nncn3n2)CC1` [Compound D-23, Clc1ccc(cc1)S(=O)(=O)N1CCN(CC1)c1ccc2n(n1)cnn2], the EC50 under setting [2] is greater than 25 µM.
As to `O=C(Nc1ccc(Cl)cc1)N1CCN(c2ccc3nncn3n2)CC1` [Compound D-78, O=C(N1CCN(C2=NN3C(C=C2)=NN=C3)CC1)NC5=CC=C(Cl)C=C5], the EC50 (Table S3, SAR of MMV665917, read-out: C. parvum EC50 (95% CI)) is greater than 25 µM.
For `COc1ccc(C(=O)NC(c2ccc(Cl)cc2Cl)c2cc(Cl)c3cccnc3c2O)cc1` (stereo not shown) [MMV666054, COc1ccc(cc1)C(=O)NC(c2ccc(Cl)cc2Cl)c3cc(Cl)c4cccnc4c3O], the EC50 under setting [1] stood at 0.81 µM.
`FC(F)(F)c1nnc2ccc(N3CCN(Cc4ccccc4)CC3)nn12` [Compound D-3, FC(c1nnc2n1nc(cc2)N1CCN(CC1)Cc1ccccc1)(F)F]: the EC50 under setting [2] was greater than 25 µM.
As for `O=C(Nc1ccc2c(c1)OCO2)N1CCN(c2ccc3nncn3n2)CC1` [Compound D-19, O=C(N1CCN(CC1)c1ccc2n(n1)cnn2)Nc1ccc2c(c1)OCO2], under setting [2], the EC50 was greater than 25 µM.
As to `O=C(Nc1cccc(Cl)c1)N1CCN(c2ccc3nncn3n2)CC1` [Compound D-77, Clc1cccc(c1)NC(=O)N2CCN(CC2)c3ccc4nncn4n3], under setting [2], the EC50 is roughly 23.7 µM.
`COc1ccc(OC)c(NC(=O)N2CCN(c3ccc4nncn4n3)CC2)c1` [Compound D-40, COc1ccc(cc1NC(=O)N1CCN(CC1)c1ccc2n(n1)cnn2)OC]: under setting [2], the EC50 is greater than 25 µM.
Take `COc1ccc(C)cc1NC(=O)N1CCN(c2ccc3nncn3n2)CC1` [Compound D-34, COc1ccc(cc1NC(=O)N1CCN(CC1)c1ccc2n(n1)cnn2)C]: the EC50 under setting [2] is greater than 25 µM.
In the case of `O=C(Nc1cccc(C(F)(F)F)c1)N1CCN(c2ccc3nncn3n2)CC1` [Compound D-27, O=C(N1CCN(CC1)c1ccc2n(n1)cnn2)Nc1cccc(c1)C(F)(F)F], under setting [2], the EC50 turned out to be 17 µM.
`O=C(Nc1ccccc1)N1CCN(c2ccc3nncn3n2)CC1` [Compound D-18, O=C(N1CCN(CC1)c1ccc2n(n1)cnn2)Nc1ccccc1]: the EC50 under setting [2] is greater than 25 µM.
On the same count and under the same terms, next, `CN(C)S(=O)(=O)c1ccc(C(=O)N2CCN(c3ccc4nncn4n3)CC2)cc1` [Compound D-44, O=C(c1ccc(cc1)S(=O)(=O)N(C)C)N1CCN(CC1)c1ccc2n(n1)cnn2]: 7.1 µM.
As for `O=C(Nc1ccc(Cl)c(Cl)c1)Nc1ccc(Cl)c(Cl)c1` [MMV665852, Clc1ccc(NC(=O)Nc2ccc(Cl)c(Cl)c2)cc1Cl], under setting [1], the EC50 worked out at 3.4 µM.
With `O=C(c1ccc(Cl)cc1)N1CCN(c2ccc3nncn3n2)CC1` [Compound D-46, Clc1ccc(cc1)C(=O)N1CCN(CC1)c1ccc2n(n1)cnn2], the EC50 under setting [2] was greater than 25 µM.
Take `CCOC(=O)N1CCN(c2ccc3nnc(C(F)(F)F)n3n2)CC1` [Compound D-4, CCOC(=O)N1CCN(CC1)c1ccc2n(n1)c(nn2)C(F)(F)F]: under setting [2], the EC50 was greater than 25 µM.
With `Cc1cc(=O)oc2c1ccc1oc(C(=O)c3ccccc3)c(C)c12` [MMV006753, CC1=CC(=O)Oc2c1ccc3oc(C(=O)c4ccccc4)c(C)c23], under setting [1], the EC50 stood at 0.25 µM.
With `O=C(Nc1ccc(C(F)(F)F)cc1)N1CCN(c2ccc3nncn3n2)CC1` [Compound D-75, FC(F)(F)c1ccc(cc1)NC(=O)N2CCN(CC2)c3ccc4nncn4n3], the EC50 under setting [2] stood at 11 µM.
Take `O=C(Nc1ccc(Cl)c(Cl)c1)N1CCN(c2ccccc2)CC1` [Compound D-74, O=C(Nc1ccc(Cl)c(Cl)c1)N2CCN(CC2)c3ccccc3]: the EC50 under setting [2] amounted to 20 µM.
Turning to `COc1cccc(Nc2nc(NCCO)c3ccccc3n2)c1` [MMV011944, n1c(NCCO)c2c(cccc2)nc1Nc3cccc(OC)c3], the EC50 under setting [1] was found to be 3.5 µM.
In the case of `O=C(COc1cccc(Cl)c1)N1CCN(c2ccc3nncn3n2)CC1` [Compound D-41, Clc1cccc(c1)OCC(=O)N1CCN(CC1)c1ccc2n(n1)cnn2], the EC50 is 18 µM under setting [2] and roughly 18 µM (Cryptosporidium parvum, inside HCT-8 cells, 48 h incubation, Fig. 1, read-out: EC50, anti-C. parvum dose response).
With `c1ccc(N2CCN(c3ccc4nncn4n3)CC2)cc1` [Compound D-9, c1ccc(cc1)N1CCN(CC1)c1ccc2n(n1)cnn2], the EC50 under setting [2] is greater than 25 µM.
For `c1cc2nncn2nc1N1CCNCC1` [Compound D-53, N1CCN(CC1)c1ccc2n(n1)cnn2], for the setting “Cryptosporidium parvum, HCT-8, read-out: C. parvum EC50 (95% CI)”, the EC50 was greater than 25 µM.
Regarding `O=C(c1ccc(F)cc1)N1CCN(c2ccc3nnc(C4CC4)n3n2)CC1` [Compound D-29, Fc1ccc(cc1)C(=O)N1CCN(CC1)c1ccc2n(n1)c(nn2)C1CC1], under setting [2], the EC50 was greater than 25 µM.
For the compound `CCOc1ccccc1NC(=O)N1CCN(c2ccc3nncn3n2)CC1` [Compound D-33, CCOc1ccccc1NC(=O)N1CCN(CC1)c1ccc2n(n1)cnn2], the EC50 under setting [2] was greater than 25 µM.
Turning to `O=S(=O)(c1ccc(Oc2ccccc2)cc1)N1CCN(c2ccc3nncn3n2)CC1` [Compound D-79, O=S(N1CCN(C2=NN3C(C=C2)=NN=C3)CC1)(C4=CC=C(OC5=CC=CC=C5)C=C4)=O], the EC50 under setting [2] stood at 12 µM.
With `COc1cc(NC(=O)N2CCN(c3ccc4nncn4n3)CC2)cc(OC)c1` [Compound D-35, COc1cc(cc(c1)OC)NC(=O)N1CCN(CC1)c1ccc2n(n1)cnn2], the EC50 under setting [2] is greater than 25 µM.
The same measure, in the same setting: next, `O=C(Nc1ccc(F)c(Cl)c1)N1CCN(c2ccc3nncn3n2)CC1` [Compound D-38, O=C(N1CCN(CC1)c1ccc2n(n1)cnn2)Nc1ccc(c(c1)Cl)F]: 12 µM.
With `CC(=O)N1CCN(c2ccc3nnc(C(F)(F)F)n3n2)CC1` [Compound D-12, CC(=O)N1CCN(CC1)c1ccc2n(n1)c(nn2)C(F)(F)F], the EC50 under setting [2] is greater than 25 µM.
Take `O=C(NC1CCCCC1)N1CCN(c2ccc3nncn3n2)CC1` [Compound D-20, O=C(N1CCN(CC1)c1ccc2n(n1)cnn2)NC1CCCCC1]: the concentration giving a half-maximal response (EC50) under setting [2] is greater than 25 µM.
For the compound `O=C(Nc1cc(F)ccc1F)N1CCN(c2ccc3nncn3n2)CC1` [Compound D-37, Fc1ccc(c(c1)NC(=O)N1CCN(CC1)c1ccc2n(n1)cnn2)F], under setting [2], the EC50 is greater than 25 µM.
Same read-out and setting: as for `Cc1nnc2ccc(N3CCN(C(=O)OC(C)(C)C)CC3)nn12` [Compound D-60, O=C(N1CCN(CC1)c1ccc2n(n1)c(C)nn2)OC(C)(C)C], the figure is greater than 25 µM; as for `O=C(Nc1ccc(Cl)c(Cl)c1)N1CCN(c2nc3ccccc3[nH]2)CC1` [Compound D-80, O=C(N1CCN(C2=NC3=C(C=CC=C3)N2)CC1)NC4=CC=C(Cl)C(Cl)=C4], 17 µM.

For orientation: EC50 means the concentration needed to bring the measured effect to its halfway point.
